Data: patent publication US12491243B2, “Formulation containing TLR agonist and methods of use” (ACCESS TO ADVANCED HEALTH INSTITUTE, priority 2016, dated 2025)

Legend:
[1] = Adsorption to Alhydrogel® (aluminum oxyhydroxide): unbound material assayed in centrifuged supernatant; format: physicochemical; conditions: for TLR Agonist Conc. In Supernatant (T = 16 wks): storage at 5° C.; for TLR Agonist Conc. In Supernatant (T = 16 wks) / TLR Agonist Conc. In Supernatant (T = 0): the ligand itself, in combinations first value = 3M-052
Description: Adjuvant formulation characterization and stability. Aqueous nanosuspensions were characterized for particle size by dynamic light scattering (DLS) using the Malvern Instruments (Worcestershire, UK) Zetasizer Nano-S or —ZS. Aqueous nanosuspensions were diluted 1:10 or 1:100 fold in water in a polystyrene cuvette prior to analysis, which consisted of three measurements resulting in a scattering intensity-biased average diameter value reported as the Z-ave. Zeta potential was measured using the Zetasizer Nano-ZS using a disposable capillary cell, with nine consecutive measurements collected from each sample prepared at 1:10 dilution in water. In general, 3M-052 concentration was measured by UV absorbance at 322.5 nm after diluting formulations 1:20 into ethanol:HCl (98:2 v:v) and comparing to a standard curve. The dilution into organic solvent removes potential interference from light scattering of the nanosuspension particles. However, for the 3M-052 binding isotherm, where maximum sensitivity was desired, no dilution was performed for the samples or the standards. Alternatively, 3M-052 concentration was determined by reverse phase HPLC with charged aerosol detection. TLR9 CpG control concentration was measured by UV absorbance at 260 nm after 1:20 dilution into ethanol:HCl. GLA concentration was measured by reverse-phase HPLC with an C18 column (Atlantis T3 or Agilent XBridge) and charged aerosol detection (CAD) using a methanol:chloroform:water mobile gradient as described previously (6). To detect unbound TLR ligand, alum-containing formulations were centrifuged briefly as indicated and the supernatant assayed by UV absorbance or HPLC-CAD. Depending on experiment, centrifugation time was 2-5 min at 2,000-16,000×g. In some experiments (FIG. 2D and Table 4), to remove the influence of saline or buffer salts on the sedimentation of TLR agonists in aluminum salt preparations, aluminum salts were first centrifuged and the supernatants removed and replaced with water; this process was repeated for another wash prior to employing the aluminum salts in the binding studies.
Antigen adsorption to aluminum salts. Binding efficiency of 3M-052 and ID93 or HIV gp120 antigen to Alhydrogel® and AdjuPhos® was determined by UV-Vis Spectroscopy and SDS-PAGE with silver stain. 1-mL of formulation was prepared by mixing saline diluent, antigen, 3M-052-AF, and/or aluminum salt. To determine HIV gp120 antigen adsorption, 30 μl of sample supernatant was mixed with 10 μl of 4× reducing or non-reducing LDS Sample Buffer, following which 20-25 μl was loaded into a 10-lane SDS-PAGE gel with 15 μl of SeeBlue2 Prestained Standard. To determine ID93 adsorption, 45 μl of sample supernatant was mixed with 15 μl of 4× reducing LDS Sample Buffer, following which 25 μl was loaded into a 10-lane SDS-PAGE gel with 15 μl of SeeBlue2 Prestained Standard. The gels were run for 55 minutes at 190 V and then placed into a fixing solution of 50:40:10 EtOH:CH3COOH:H2O for overnight. […]
To determine the adsorption capacity of Alhydrogel® for 3M-052-AF, the nanosuspension at various concentrations was mixed with aluminum oxyhydroxide and allowed to sit for ˜30 min with intermittent vortexing, followed by centrifugation such that the aluminum particles pelleted. […] The adsorption stability of 3M-052-AF on Alhydrogel® over time was evaluated by assaying samples for unbound 3M-052 before and after storage at 5° C. for 16 wks. […]

[2] = imidazoquinolines such as 3M-052; reference (9); cited from earlier work
human TLR7 = target: T1, human TLR7 (Homo sapiens, UniProt Q9NYK1); conditions: in vitro; reference (5); cited from earlier work
T1 sequence (Q9NYK1 27-1049): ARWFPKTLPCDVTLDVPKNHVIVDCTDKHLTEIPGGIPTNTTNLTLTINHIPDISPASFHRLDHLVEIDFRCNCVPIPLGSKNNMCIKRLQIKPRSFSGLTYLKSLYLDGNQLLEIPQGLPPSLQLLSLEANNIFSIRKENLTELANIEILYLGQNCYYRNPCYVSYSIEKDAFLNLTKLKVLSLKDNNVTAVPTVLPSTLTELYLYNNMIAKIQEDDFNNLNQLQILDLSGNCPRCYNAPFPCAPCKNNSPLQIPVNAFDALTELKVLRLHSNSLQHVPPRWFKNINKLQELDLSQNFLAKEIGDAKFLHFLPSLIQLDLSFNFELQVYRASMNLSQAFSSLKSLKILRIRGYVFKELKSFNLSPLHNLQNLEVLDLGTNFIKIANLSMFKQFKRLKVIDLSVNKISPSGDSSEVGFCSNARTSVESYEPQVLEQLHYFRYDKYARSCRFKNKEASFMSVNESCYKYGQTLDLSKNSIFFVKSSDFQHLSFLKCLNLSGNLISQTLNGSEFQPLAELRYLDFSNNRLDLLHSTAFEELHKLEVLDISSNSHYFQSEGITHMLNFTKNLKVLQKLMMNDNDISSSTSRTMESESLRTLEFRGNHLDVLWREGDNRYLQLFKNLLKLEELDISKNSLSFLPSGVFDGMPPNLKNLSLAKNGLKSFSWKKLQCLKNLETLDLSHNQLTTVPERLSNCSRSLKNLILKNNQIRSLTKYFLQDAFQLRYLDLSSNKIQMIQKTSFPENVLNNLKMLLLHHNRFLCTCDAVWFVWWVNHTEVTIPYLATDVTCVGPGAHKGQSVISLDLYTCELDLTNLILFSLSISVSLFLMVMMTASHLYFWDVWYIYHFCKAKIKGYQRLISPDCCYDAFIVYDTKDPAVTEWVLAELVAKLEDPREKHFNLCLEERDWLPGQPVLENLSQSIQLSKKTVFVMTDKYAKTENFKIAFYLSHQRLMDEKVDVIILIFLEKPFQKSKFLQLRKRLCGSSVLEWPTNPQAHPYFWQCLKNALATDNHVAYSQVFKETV

human TLR8 = target: T2, human TLR8 (Homo sapiens, UniProt Q9NR97); conditions: in vitro; reference (5); cited from earlier work
T2 sequence (Q9NR97 27-1041): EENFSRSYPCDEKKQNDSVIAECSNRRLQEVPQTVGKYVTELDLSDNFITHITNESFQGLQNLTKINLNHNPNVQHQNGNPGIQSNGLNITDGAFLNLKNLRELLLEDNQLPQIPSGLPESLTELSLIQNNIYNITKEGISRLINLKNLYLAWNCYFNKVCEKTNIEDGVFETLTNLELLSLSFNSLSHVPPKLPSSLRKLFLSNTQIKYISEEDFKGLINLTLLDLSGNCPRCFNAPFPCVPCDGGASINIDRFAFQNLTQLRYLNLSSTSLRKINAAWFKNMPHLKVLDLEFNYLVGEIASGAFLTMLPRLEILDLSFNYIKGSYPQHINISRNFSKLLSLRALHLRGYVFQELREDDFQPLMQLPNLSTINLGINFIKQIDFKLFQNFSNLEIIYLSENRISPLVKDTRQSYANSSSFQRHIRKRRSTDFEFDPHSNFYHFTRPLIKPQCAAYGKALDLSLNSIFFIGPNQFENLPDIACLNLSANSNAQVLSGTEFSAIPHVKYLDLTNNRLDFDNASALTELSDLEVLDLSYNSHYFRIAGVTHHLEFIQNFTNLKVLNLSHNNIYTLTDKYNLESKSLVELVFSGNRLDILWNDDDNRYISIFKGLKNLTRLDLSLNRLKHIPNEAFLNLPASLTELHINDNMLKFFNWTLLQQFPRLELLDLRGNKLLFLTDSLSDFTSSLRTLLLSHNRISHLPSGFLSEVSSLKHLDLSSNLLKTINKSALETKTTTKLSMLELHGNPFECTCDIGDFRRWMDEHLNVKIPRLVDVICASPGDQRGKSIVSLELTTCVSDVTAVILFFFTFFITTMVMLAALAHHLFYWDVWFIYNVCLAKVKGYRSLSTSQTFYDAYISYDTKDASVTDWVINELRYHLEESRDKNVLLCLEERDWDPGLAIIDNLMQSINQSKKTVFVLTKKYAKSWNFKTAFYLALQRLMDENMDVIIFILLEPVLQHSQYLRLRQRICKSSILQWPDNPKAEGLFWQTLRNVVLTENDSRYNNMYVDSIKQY

CCCCCCCCCCCCCCCCCC(=O)NCCCCOn1c(CCCC)nc2c(N)nc3ccccc3c21 [3M-052, N-(4-{[4-amino-2-butyl-1H-imidazo[4,5-c]quinolin-1-yl]oxy}butyl)octadecanamide]
effect of other TLR ligands on adsorption of 3M-052 to aluminum oxyhydroxide ([1]; co-adsorbed GLA or TLR9 CpG control (Table 2)): did not appear to interfere | TLR Agonist Conc. In Supernatant (T = 16 wks) ([1]; no aluminum salt (control)): 74 ± 1 µg/mL | TLR Agonist Conc. In Supernatant (T = 0) ([1]; no aluminum salt (control)): 94 ± 1 µg/mL | TLR Agonist Conc. In Supernatant (T = 16 wks) ([1]; with Alhydrogel®): 10 ± 1 µg/mL | TLR Agonist Conc. In Supernatant (T = 0) ([1]; with Alhydrogel®): 11 ± 1 µg/mL | pKa [2]: ~7 | activation of human TLR7 (human TLR7): activates | activation of human TLR8 (human TLR8): activates
